Consider two compounds from patent US20040010026A1, “(R) 2-(4-amidinophenylaminomethyl)-1-methyl-5-[1-(carboxymethylamino)-1 (pyrrolidinocarbonyl)-ethyl]-benzimidazole, the monohydrochloride thereof, preparation thereof and the use as pharmaceutical composition” (Boehringer Ingelheim Pharma GmbH & Co. KG, priority 2002, published 2004).

Data set [1] is described as follows: Solubility in physiologically acceptable solvents. In kind it is physicochemical.
Data set [2] is described as follows: Solid stress stability of the free base and of the corresponding monohydrochloride. The following applies: for decomposition under temperature and relative humidity stress / decomposition under temperature stress / decomposition under light stress: solid, open glass dish; for decomposition under temperature and relative humidity stress: 70° C., approx. 90% relative humidity, 3 days; for decomposition under temperature stress: 105° C., 24 hours; for decomposition under light stress: Suntester xenon lamp, 22-24 hours. In kind it is physicochemical. From the text:
Solid stress stability data of the free base and of the corresponding monohydrochloride

Counter-ions that a name gives are not always drawn.

In the case of `Cn1c(CNc2ccc(C(=N)N)cc2)nc2cc([C@@](C)(NCC(=O)O)C(=O)N3CCCC3)ccc21` [monohydrochloride, (R)-2-(4-Amidinophenylaminomethyl)-1-methyl-5-[1-(carboxymethylamino)-1-(pyrrolidinocarbonyl)-ethyl]-benzimidazole-monohydrochloride], the solubility entry in data set [1] is listed as “dissolves very easily”. Further, in data set [2], the “stability (general statement)” value was “high degree of stability”; the “decomposition under temperature and relative humidity stress” value is recorded as “no decompo-”; the “decomposition under temperature stress” value is on record as “no decompo-”; the “decomposition under light stress” value is reported as “(<1%)”.

Take `Cn1c(CNc2ccc(C(=N)N)cc2)nc2cc([C@@](C)(NCC(=O)O)C(=O)N3CCCC3)ccc21` [Free base, (R)-2-(4-Amidinophenylaminomethyl)-1-methyl-5-[1-(carboxymethylamino)-1-(pyrrolidinocarbonyl)-ethyl]-benzimidazole]: in data set [2], the “decomposition under temperature and relative humidity stress” value is recorded as “approx. 4%”; the “decomposition under temperature stress” value is “approx. 1%”; the “decomposition under light stress” value is on record as “approx. 1%”.
